# Laboratory results as given in the NIST ThermoML archive (doi:10.1021/je0501890).
# ± gives the expanded uncertainty stated by the source.
# Experiment: xn = mol fraction of the nth substance listed
# Conditions: 101.33 kPa, Liquid
compound,measurement,setting,value
"ClC(Cl)C(Cl)Cl [1,1,2,2-tetrachloroethane] + CCCCCCCO",mass density,"293.15 K, x2 = 0.0506",1541.06 ± 1.5 kg/m3
same,viscosity,"293.15 K, x2 = 0.0997",1.852 ± 0.024 mPa·s
same,mass density,"293.15 K, x2 = 0.1031",1488.84 ± 1.4 kg/m3
same,mass density,"293.15 K, x2 = 0.1519",1442.21 ± 1.3 kg/m3
same,mass density,"293.15 K, x2 = 0.2003",1397.58 ± 1.2 kg/m3
same,viscosity,"293.15 K, x2 = 0.2073",2.091 ± 0.028 mPa·s
same,mass density,"293.15 K, x2 = 0.2515",1351.89 ± 1.1 kg/m3
same,mass density,"293.15 K, x2 = 0.2998",1310.19 ± 1.1 kg/m3
same,viscosity,"293.15 K, x2 = 0.3054",2.417 ± 0.031 mPa·s
same,viscosity,"293.15 K, x2 = 0.3445",2.558 ± 0.034 mPa·s
same,mass density,"293.15 K, x2 = 0.3499",1268.42 ± 0.99 kg/m3
same,viscosity,"293.15 K, x2 = 0.4085",2.833 ± 0.038 mPa·s
same,mass density,"293.15 K, x2 = 0.4109",1219.27 ± 0.92 kg/m3
same,mass density,"293.15 K, x2 = 0.4464",1191.47 ± 0.88 kg/m3
same,viscosity,"293.15 K, x2 = 0.5042",3.341 ± 0.044 mPa·s
same,mass density,"293.15 K, x2 = 0.5113",1142.28 ± 0.82 kg/m3
same,viscosity,"293.15 K, x2 = 0.5438",3.564 ± 0.047 mPa·s
same,mass density,"293.15 K, x2 = 0.5524",1112.04 ± 0.76 kg/m3
same,viscosity,"293.15 K, x2 = 0.5988",3.924 ± 0.052 mPa·s
same,mass density,"293.15 K, x2 = 0.6013",1077.03 ± 0.69 kg/m3
same,mass density,"293.15 K, x2 = 0.6506",1042.68 ± 0.63 kg/m3
same,viscosity,"293.15 K, x2 = 0.6937",4.654 ± 0.062 mPa·s
same,mass density,"293.15 K, x2 = 0.6959",1011.91 ± 0.58 kg/m3
same,mass density,"293.15 K, x2 = 0.7507",975.7 ± 0.56 kg/m3
same,viscosity,"293.15 K, x2 = 0.753",5.166 ± 0.069 mPa·s
same,mass density,"293.15 K, x2 = 0.8001",943.88 ± 0.57 kg/m3
same,viscosity,"293.15 K, x2 = 0.8007",5.595 ± 0.074 mPa·s
same,mass density,"293.15 K, x2 = 0.8505",912.27 ± 0.58 kg/m3
same,viscosity,"293.15 K, x2 = 0.8971",6.506 ± 0.087 mPa·s
same,mass density,"293.15 K, x2 = 0.8979",883.17 ± 0.6 kg/m3
same,mass density,"293.15 K, x2 = 0.9513",851.1 ± 0.63 kg/m3
same,mass density,"298.15 K, x2 = 0.0506",1533.58 ± 1.5 kg/m3
same,viscosity,"298.15 K, x2 = 0.0997",1.69 ± 0.022 mPa·s
same,mass density,"298.15 K, x2 = 0.1031",1481.6 ± 1.4 kg/m3
same,mass density,"298.15 K, x2 = 0.1519",1435.22 ± 1.3 kg/m3
same,mass density,"298.15 K, x2 = 0.2003",1390.83 ± 1.2 kg/m3
same,viscosity,"298.15 K, x2 = 0.2073",1.907 ± 0.025 mPa·s
same,mass density,"298.15 K, x2 = 0.2515",1345.42 ± 1.1 kg/m3
same,mass density,"298.15 K, x2 = 0.2998",1303.92 ± 1.1 kg/m3
same,viscosity,"298.15 K, x2 = 0.3054",2.187 ± 0.029 mPa·s
same,viscosity,"298.15 K, x2 = 0.3445",2.272 ± 0.03 mPa·s
same,mass density,"298.15 K, x2 = 0.3499",1262.39 ± 0.98 kg/m3
same,viscosity,"298.15 K, x2 = 0.4085",2.506 ± 0.033 mPa·s
same,mass density,"298.15 K, x2 = 0.4109",1213.55 ± 0.91 kg/m3
same,mass density,"298.15 K, x2 = 0.4464",1185.87 ± 0.87 kg/m3
same,viscosity,"298.15 K, x2 = 0.5042",2.908 ± 0.039 mPa·s
same,mass density,"298.15 K, x2 = 0.5113",1136.96 ± 0.81 kg/m3
same,viscosity,"298.15 K, x2 = 0.5438",3.101 ± 0.042 mPa·s
same,mass density,"298.15 K, x2 = 0.5524",1106.9 ± 0.75 kg/m3
same,viscosity,"298.15 K, x2 = 0.5988",3.392 ± 0.046 mPa·s
same,mass density,"298.15 K, x2 = 0.6013",1072.05 ± 0.68 kg/m3
same,mass density,"298.15 K, x2 = 0.6506",1037.91 ± 0.62 kg/m3
same,viscosity,"298.15 K, x2 = 0.6937",3.992 ± 0.054 mPa·s
same,mass density,"298.15 K, x2 = 0.6959",1007.34 ± 0.58 kg/m3
same,mass density,"298.15 K, x2 = 0.7507",971.35 ± 0.56 kg/m3
same,viscosity,"298.15 K, x2 = 0.753",4.389 ± 0.06 mPa·s
same,mass density,"298.15 K, x2 = 0.8001",939.68 ± 0.57 kg/m3
same,viscosity,"298.15 K, x2 = 0.8007",4.737 ± 0.065 mPa·s
same,mass density,"298.15 K, x2 = 0.8505",908.25 ± 0.58 kg/m3
same,viscosity,"298.15 K, x2 = 0.8971",5.365 ± 0.073 mPa·s
same,mass density,"298.15 K, x2 = 0.8979",879.34 ± 0.6 kg/m3
same,mass density,"298.15 K, x2 = 0.9513",847.45 ± 0.64 kg/m3
same,mass density,"303.15 K, x2 = 0.0506",1526.03 ± 1.4 kg/m3
same,viscosity,"303.15 K, x2 = 0.0997",1.547 ± 0.021 mPa·s
same,mass density,"303.15 K, x2 = 0.1031",1474.35 ± 1.4 kg/m3
same,mass density,"303.15 K, x2 = 0.1519",1428.22 ± 1.3 kg/m3
same,mass density,"303.15 K, x2 = 0.2003",1384.07 ± 1.2 kg/m3
same,viscosity,"303.15 K, x2 = 0.2073",1.71 ± 0.023 mPa·s
same,mass density,"303.15 K, x2 = 0.2515",1338.9 ± 1.1 kg/m3
same,mass density,"303.15 K, x2 = 0.2998",1297.68 ± 1 kg/m3
same,viscosity,"303.15 K, x2 = 0.3054",1.927 ± 0.026 mPa·s
same,viscosity,"303.15 K, x2 = 0.3445",2.027 ± 0.027 mPa·s
same,mass density,"303.15 K, x2 = 0.3499",1256.35 ± 0.97 kg/m3
same,viscosity,"303.15 K, x2 = 0.4085",2.225 ± 0.03 mPa·s
same,mass density,"303.15 K, x2 = 0.4109",1207.77 ± 0.9 kg/m3
same,mass density,"303.15 K, x2 = 0.4464",1180.31 ± 0.86 kg/m3
same,viscosity,"303.15 K, x2 = 0.5042",2.555 ± 0.034 mPa·s
same,mass density,"303.15 K, x2 = 0.5113",1131.65 ± 0.8 kg/m3
same,viscosity,"303.15 K, x2 = 0.5438",2.715 ± 0.037 mPa·s
same,mass density,"303.15 K, x2 = 0.5524",1101.73 ± 0.74 kg/m3
same,viscosity,"303.15 K, x2 = 0.5988",2.962 ± 0.04 mPa·s
same,mass density,"303.15 K, x2 = 0.6013",1067.13 ± 0.68 kg/m3
same,mass density,"303.15 K, x2 = 0.6506",1033.17 ± 0.62 kg/m3
same,viscosity,"303.15 K, x2 = 0.6937",3.429 ± 0.047 mPa·s
same,mass density,"303.15 K, x2 = 0.6959",1002.73 ± 0.57 kg/m3
same,mass density,"303.15 K, x2 = 0.7507",966.91 ± 0.56 kg/m3
same,viscosity,"303.15 K, x2 = 0.753",3.763 ± 0.052 mPa·s
same,mass density,"303.15 K, x2 = 0.8001",935.48 ± 0.57 kg/m3
same,viscosity,"303.15 K, x2 = 0.8007",4.035 ± 0.056 mPa·s
same,mass density,"303.15 K, x2 = 0.8505",904.23 ± 0.59 kg/m3
same,viscosity,"303.15 K, x2 = 0.8971",4.627 ± 0.063 mPa·s
same,mass density,"303.15 K, x2 = 0.8979",875.45 ± 0.61 kg/m3
same,mass density,"303.15 K, x2 = 0.9513",843.75 ± 0.64 kg/m3
